Source: patent publication US9040557B2, “Composition containing cinchonine as an active ingredient for preventing and treating obesity, dyslipidemia, fatty liver, or insulin resistance syndrome” (YONSEI UNIVERSITY TECHNOLOGY HOLDINGS, INC., priority 2010, dated 2015)
Marks after values point to notes of the source that are not given here.

Tests used:
[1] = tested on: TNF-α; assay: RT-PCR of visceral fat tissues: TNF-α; assay type: in vivo, mice; settings: FIG. 5
Procedure: (§1) After adding 1 mL of Trizol agent (Invitrogen, USA) per 0.1 g of epididymal fat tissues, the mixture was homogenized and centrifuged at 12,000×g for 10 min at 4° C. The supernatant was transferred to a new tube and 200 μl of chloroform was added to the tube, followed by vortexing. The same procedure was repeated twice and then the supernatant was transferred to a new tube, followed by addition of isopropanol and the supernatant at 1:1 ratio. The mixture was vigorously shaken 10 times and then incubated for 10 min at room temperature, followed by centrifugation at 12,000×g for 10 min at 4° C. to remove the supernatant. After adding 1 mL of 70% ethanol to the remaining pellet, it was centrifuged at 7,500×g for 5 min at 4° C. After removing the ethanol, the RNA pellet contained in the tube was dried for 5 min at 4° C. and dissolved in nuclease-free water. The RNA concentration of sample was measured at a wavelength of 260 nm and 280 nm using a UV/VIS spectrophotometer (Beckman coulter, DU730) and the integrity of RNA sample was verified by agarose gel electrophoresis. The RNA sample obtained from the epididymal fat tissues was transcribed using oligo dT primer and SuperScript reverse transcriptase (GIBCO BRL, Gaithersburg, Md., USA) to synthesize cDNA. The PCR amplification was performed using the cDNA as templates and primers complementary to cDNA [NT] flanking sequence. […]

[2] = tested on: IL-6; assay: RT-PCR of visceral fat tissues: IL-6; assay type: in vivo, mice; settings: FIG. 5
Procedure: as §1

[3] = tested on: C57BL/6J mice; assay: Liver weight and lipid levels in liver tissue after 10 weeks of test diet; assay type: in vivo
Procedure: The obesity-inducing control diet used in the test was high-fat diet (HFD: 40% fat calorie, 17 g lard+3% corn oil/100 g diet). […] The normal diet (ND) was prepared according to the AIN-76 rodent diet composition (American Institute of Nutrition, Report of the American Institute of Nutrition ad hoc committee on standards for nutritional studies. J. Nutr., 107: 1340-1348, (1977)) (FIG. 1). (+)-Cinchonine was purchased from Sigma-Aldrich. 5-week-old male C57BL/6J mice (Orient, Korea) were accustomed to the laboratory environment for 1 week while feeding solid feed. Then, they were randomly divided into a high-fat diet group and a test group according to randomized block design and bred for a total of 10 weeks. The diet was given between 10 and 11 A.M. every day together with water. Food intake was measured every day and body weight was measured once a week. In order to avoid transient body weight increase after feed intake, body weight was measured 2 hr after removing the feed. […] Blood taken from the abdominal aorta was centrifuged at 1000×g for 15 minutes for the separation of plasma. Lipids were extracted from the liver tissue according to Folch et al.'s method Folch J et al., J Biol Chem, 226: 497-509 (1957)). […] After adding 5 mL of chloroform:methanol solution (2:1, v/v) to the homogenate and mixing well, the mixture was centrifuged at 1000×g for 10 minutes. […] After adding 3 mL of chloroform:methanol:0.05% CaCl2 (3:48:47, v/v/v) solution to the remaining pellets and mixing well for 1 minute, followed by centrifugation at 1000×g for 10 minutes, the resulting pellets were completely dried with nitrogen gas. The dried lipids were dissolved in 1 mL of methanol and then analyzed. The commercially available kits (Bio Clinical System, Korea) were used to measure the levels of triglyceride, cholesterol and free fatty acids of the liver tissue.

[4] = tested on: C57BL/6J mice; assay: Biochemical analysis of plasma after 10 weeks of test diet; assay type: in vivo
Procedure: The obesity-inducing control diet used in the test was high-fat diet (HFD: 40% fat calorie, 17 g lard+3% corn oil/100 g diet). […] The normal diet (ND) was prepared according to the AIN-76 rodent diet composition (American Institute of Nutrition, Report of the American Institute of Nutrition ad hoc committee on standards for nutritional studies. J. Nutr., 107: 1340-1348, (1977)) (FIG. 1). (+)-Cinchonine was purchased from Sigma-Aldrich. 5-week-old male C57BL/6J mice (Orient, Korea) were accustomed to the laboratory environment for 1 week while feeding solid feed. Then, they were randomly divided into a high-fat diet group and a test group according to randomized block design and bred for a total of 10 weeks. The diet was given between 10 and 11 A.M. every day together with water. Food intake was measured every day and body weight was measured once a week. In order to avoid transient body weight increase after feed intake, body weight was measured 2 hr after removing the feed. […] Blood taken from the abdominal aorta was centrifuged at 1000×g for 15 minutes for the separation of plasma. […] Total cholesterol, triglyceride, free fatty acid and glucose levels in the plasma were measured twice for each using a commercially available kit (Bio Clinical System). The level of LDL+VLDL in plasma was calculated by subtracting HDL level from the total cholesterol level. The activities of ALT (alanine aminotransferase) and AST (aspartate aminotransferase) used as liver function indicator were measured using a commercially available kit (Bio Clinical System, Korea).

[5] = target: P-glycoprotein (Homo sapiens, UniProt P08183); settings: cited from earlier work
[6] = tested on: UCP1; assay: RT-PCR of visceral fat tissues: UCP1; assay type: in vivo, mice; settings: FIG. 6
Procedure: as §1

[7] = tested on: adrenorceptor and Ca^2+ channels; settings: cited from earlier work
[8] = tested on: human platelets; settings: cited from earlier work
[9] = tested on: Plasmodium falciparum; settings: cited from earlier work
[10] = tested on: P388 multidrug-resistant cells; settings: cited from earlier work
[11] = tested on: aP2; assay: RT-PCR of epididymal fat tissues: aP2; assay type: in vivo, mice; settings: CSID vs HFD, FIG. 4
Procedure: as §1

[12] = tested on: C/EBPα; assay: RT-PCR of epididymal fat tissues: C/EBPα; assay type: in vivo, mice; settings: CSID vs HFD, FIG. 4
[13] = tested on: 3T3-L1 adipocyte precursor cells; assay: Inhibition of adipocyte differentiation, Oil-red O staining; assay type: cell-based, mouse; settings: 0.1, 1, 10, 50 and 100 μM, fourteen-day culture; for differentiation of 3T3-L1 adipocyte precursor cells: FIG. 1a; for content of intracellular fats stained with Oil-red O (O.D. at 600 nm): FIG. 1b
[14] = tested on: C57BL/6J mice; assay: Body and visceral fat-pad weights after 10 weeks of test diet; assay type: in vivo; settings: 0.05% cinchonine in high-fat diet
Procedure: The obesity-inducing control diet used in the test was high-fat diet (HFD: 40% fat calorie, 17 g lard+3% corn oil/100 g diet). […] The normal diet (ND) was prepared according to the AIN-76 rodent diet composition (American Institute of Nutrition, Report of the American Institute of Nutrition ad hoc committee on standards for nutritional studies. J. Nutr., 107: 1340-1348, (1977)) (FIG. 1). (+)-Cinchonine was purchased from Sigma-Aldrich. 5-week-old male C57BL/6J mice (Orient, Korea) were accustomed to the laboratory environment for 1 week while feeding solid feed. Then, they were randomly divided into a high-fat diet group and a test group according to randomized block design and bred for a total of 10 weeks. The diet was given between 10 and 11 A.M. every day together with water. Food intake was measured every day and body weight was measured once a week. In order to avoid transient body weight increase after feed intake, body weight was measured 2 hr after removing the feed. […] Blood taken from the abdominal aorta was centrifuged at 1000×g for 15 minutes for the separation of plasma.

[15] = tested on: PPARγ2; assay: RT-PCR of epididymal fat tissues: PPARγ2; assay type: in vivo, mice; settings: CSID vs HFD, FIG. 4
Procedure: as §1

[16] = tested on: UCP3; assay: RT-PCR of visceral fat tissues: UCP3; assay type: in vivo, mice; settings: FIG. 6
Procedure: as §1

[17] = 0.05% cinchonine in high-fat diet
[18] = 0.05% cinchonine in high-fat diet, 10 weeks

P-glycoprotein, sequence (P08183 whole entry): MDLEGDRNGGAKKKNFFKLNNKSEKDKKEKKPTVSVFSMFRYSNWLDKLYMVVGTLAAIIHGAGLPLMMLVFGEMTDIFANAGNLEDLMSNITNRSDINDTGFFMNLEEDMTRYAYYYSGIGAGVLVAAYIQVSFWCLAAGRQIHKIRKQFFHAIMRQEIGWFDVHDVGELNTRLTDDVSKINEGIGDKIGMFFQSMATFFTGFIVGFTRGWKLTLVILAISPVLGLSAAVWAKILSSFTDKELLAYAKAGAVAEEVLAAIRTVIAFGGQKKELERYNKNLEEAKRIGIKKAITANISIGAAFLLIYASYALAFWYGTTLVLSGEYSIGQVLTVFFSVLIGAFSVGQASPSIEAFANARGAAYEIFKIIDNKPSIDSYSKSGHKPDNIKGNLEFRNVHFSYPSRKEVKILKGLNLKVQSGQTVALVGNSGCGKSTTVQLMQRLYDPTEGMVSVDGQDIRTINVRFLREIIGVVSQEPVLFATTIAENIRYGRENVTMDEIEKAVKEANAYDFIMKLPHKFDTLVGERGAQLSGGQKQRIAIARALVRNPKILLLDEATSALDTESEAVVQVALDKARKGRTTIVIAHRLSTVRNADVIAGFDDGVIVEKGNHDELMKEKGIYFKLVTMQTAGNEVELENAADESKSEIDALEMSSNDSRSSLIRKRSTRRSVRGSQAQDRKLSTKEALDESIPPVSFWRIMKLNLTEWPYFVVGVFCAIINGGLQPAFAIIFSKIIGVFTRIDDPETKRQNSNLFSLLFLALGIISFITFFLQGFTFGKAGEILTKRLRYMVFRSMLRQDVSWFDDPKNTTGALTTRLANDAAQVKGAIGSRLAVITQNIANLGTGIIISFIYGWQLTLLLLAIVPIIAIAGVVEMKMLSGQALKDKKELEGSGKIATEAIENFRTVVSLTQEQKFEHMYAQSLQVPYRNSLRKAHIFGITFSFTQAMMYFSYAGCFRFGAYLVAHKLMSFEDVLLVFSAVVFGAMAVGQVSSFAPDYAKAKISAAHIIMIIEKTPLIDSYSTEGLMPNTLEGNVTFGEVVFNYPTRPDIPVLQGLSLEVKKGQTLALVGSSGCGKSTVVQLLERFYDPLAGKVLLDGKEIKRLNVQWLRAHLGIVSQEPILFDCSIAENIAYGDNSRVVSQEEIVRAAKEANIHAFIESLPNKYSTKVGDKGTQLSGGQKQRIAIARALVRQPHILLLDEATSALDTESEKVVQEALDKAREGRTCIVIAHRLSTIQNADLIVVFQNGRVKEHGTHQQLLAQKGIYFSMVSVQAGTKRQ

Q: With `C=C[C@H]1C[N@@]2CC[C@H]1C[C@@H]2[C@@H](O)c1ccnc2ccccc12` [cinchonine, Cinchonine] as the molecule, how does the “HFD-induced elevation in expression of TNF-α” value [1] read?
A: significantly reversed

Q: And the “HFD-induced elevation in expression of IL-6” value [2]?
A: significantly reversed

Q: And the “decrease of cholesterol level in liver tissue as compared to HFD” value [3, 17]?
A: 16%

Q: And the “decrease of free fatty acid level in liver tissue as compared to HFD” value [3, 17]?
A: 23%

Q: What about the “decrease of triglyceride level in liver tissue as compared to HFD” value [3, 17] of the same molecule?
A: 16%

Q: And the “reduction of absolute weight of liver as compared to HFD” value [3, 17]?
A: 36%

Q: And the “reduction of ratio of liver weight to body weight as compared to HFD” value [3, 17]?
A: 25%

Q: And the Liver weight ([3]; CSID group)?
A: 1.4 ± 0.14^b g

Q: What about the “Liver weight (g/100 g body wt)” value ([3]; CSID group) of the same molecule?
A: 4.0 ± 0.12^b g/100 g body wt

Q: And the Cholesterol ([3]; liver tissue, CSID group)?
A: 109.9 ± 2.37^b μmol/g

Q: And the Free fatty acid ([3]; liver tissue, CSID group)?
A: 38.6 ± 3.52^b μEq/g

Q: And the Triglyceride ([3]; liver tissue, CSID group)?
A: 59.7 ± 2.26^b μmol/g

Q: And the “decrease of plasma ALT activity as compared to HFD” value [4, 18]?
A: 58%

Q: And the “decrease of plasma AST activity as compared to HFD” value [4, 18]?
A: 46%

Q: And the “lower plasma LDL+VLDL level as compared to HFD” value [4, 18]?
A: 33%

Q: What about the “lower plasma free fatty acid level as compared to HFD” value [4, 18] of the same molecule?
A: 21%

Q: And the “lower plasma total cholesterol level as compared to HFD” value [4, 18]?
A: 30%

Q: And the “lower plasma triglyceride level as compared to HFD” value [4, 18]?
A: 24%

Q: What about the “reduction of fasting blood sugar level as compared to HFD” value [4, 18] of the same molecule?
A: 27%

Q: And the “lower plasma HDL cholesterol level as compared to HFD” value ([4]; group fed with the present composition vs high fat diet group)?
A: 25%

Q: What about the ALT ([4]; plasma, CSID group, 10 weeks) of the same molecule?
A: 5.94 ± 0.78^c IU/L

Q: What about the AST ([4]; plasma, CSID group, 10 weeks) of the same molecule?
A: 6.03 ± 0.28^b IU/L

Q: What about the Free fatty acid ([4]; plasma, CSID group, 10 weeks) of the same molecule?
A: 685 ± 65.6^b uEq/L

Q: And the HDL cholesterol ([4]; plasma, CSID group, 10 weeks)?
A: 0.89 ± 0.04^b mmol/L

Q: What about the Total cholesterol ([4]; plasma, CSID group, 10 weeks) of the same molecule?
A: 4.57 ± 0.26^b mmol/L

Q: And the Triglyceride ([4]; plasma, CSID group, 10 weeks)?
A: 0.68 ± 0.05^b mmol/L

Q: What about the “LDL + VLDL cholesterol” value ([4]; plasma, CSID group, 10 weeks, total cholesterol minus HDL) of the same molecule?
A: 3.68 ± 0.27^b mmol/L

Q: What about the Glucose ([4]; plasma, fasting, CSID group, 10 weeks) of the same molecule?
A: 6.51 ± 0.62^b mmol/L

Q: What about the “multi-drug resistance of cancer cells through P-glycoprotein binding” value [5] of the same molecule?
A: improve multi-drug resistance

Q: What about the “HFD-induced decrease in expression of UCP1” value [6] of the same molecule?
A: significantly reversed

Q: What about the “antihypertensive effects by blocking adrenorceptor and Ca^2+ channels” value [7] of the same molecule?
A: antihypertensive effects

Q: And the “platelet aggregation, blocking Ca^2+ influx into human platelets” value [8]?
A: inhibits platelet aggregation

Q: What about the “in vitro anti-malaria effects” value [9] of the same molecule?
A: in vitro anti-malaria effects

Q: And the “apoptosis by suppressing transportation of drugs from P388 multidrug-resistant cells” value [10]?
A: induce apoptosis

Q: What about the “aP2 gene expression (mRNA)” value [11] of the same molecule?
A: significantly reduced expressions

Q: And the “C/EBPα gene expression (mRNA)” value [12]?
A: significantly reduced expressions

Q: What about the “differentiation of 3T3-L1 adipocyte precursor cells” value [13] of the same molecule?
A: significantly decreases differentiation

Q: And the “differentiation of 3T3-L1 adipocyte precursor cells” value ([13]; listed as (+)-cinchonine)?
A: decreased differentiation

Q: And the “content of intracellular fats stained with Oil-red O (O.D. at 600 nm)” value [13]?
A: decreased in a dose-dependent manner

Q: What about the “content of intracellular fats stained with Oil-red O (O.D. at 600 nm)” value ([13]; listed as (+)-cinchonine) of the same molecule?
A: decreased

Q: And the “decrease in cumulative body weight gain as compared to HFD” value [14]?
A: 39%

Q: What about the “decrease in final body weight as compared to HFD” value [14] of the same molecule?
A: 20%

Q: And the “reduction of epididymal fat-pad weight as compared to HFD” value [14]?
A: 19%

Q: And the “reduction of mesenteric fat-pad weight as compared to HFD” value [14]?
A: 43%

Q: What about the “reduction of perirenal fat-pad weight as compared to HFD” value [14] of the same molecule?
A: 45%

Q: What about the “reduction of retroperitoneal fat-pad weight as compared to HFD” value [14] of the same molecule?
A: 15%

Q: What about the “reduction of total visceral fat weight as compared to HFD” value ([14]; p<0.001) of the same molecule?
A: 26%

Q: And the “PPARγ2 gene expression (mRNA)” value [15]?
A: significantly reduced expressions

Q: And the “HFD-induced decrease in expression of UCP3” value [16]?
A: significantly reversed
